Results reported in patent US20260027073A1, “USE OF SMALL-MOLECULE COMPOUND HAVING NAPHTHYLAMINE STRUCTURE” (HANGZHOU PHECDAMED CO., LTD., priority 2023, published 2026).

Experiments:
[1] = system: Androgen-induced benign prostatic hyperplasia in rats; assay: Androgen-induced benign prostatic hyperplasia; format: in vivo, SD rats; conditions: TJ01-013 30 mg/kg, Finasteride 10 mg/kg
Description: Androgen-induced benign prostatic hyperplasia in rats has been used in many research fields. The specific model was constructed as follows: 180 g-200 g male SD rats were given 30 mg/kg androgen intramuscularly every other day, and 15 consecutive androgen injections were given for modeling, and the experiments were divided into […], a negative control group (Sham), a model control group (Control), TJ01-013 treatment group (TJ01-013, 30 mg/kg), Finasteride treatment group (Finasteride, 10 mg/kg), and TJ01-013+Finasteride treatment group (13+F). The drug was administered at the same time as the androgen modeling, the mode of administration was by oral gavage, the volume of the administration was 10 ml/kg, the frequency of administration was daily, and the administration was ended on the 30th day, the rats were weighed and euthanized, and the prostate and urethra of the rats were taken and weighed, and the organ coefficients (weight of the prostate gland/weight of the rats) were finally calculated.

[2] = system: CUMS animal model of depression; assay: CUMS depression model behavioral tests; format: in vivo, C57BL/6J mice; conditions: Fluoxetine 30 mg/kg
Excerpt: Depression, also known as depressive disorder, is characterized by significant and long-lasting depressed state of mind as the main clinical feature. The CUMS animal model of depression is a chronic unpredictable animal stress model, which simulates part of the stressor, the external material environmental stimulus, and will cause dysfunctions in the animal organism through different stress stimuli, leading to occurrence of the psychiatric disease depression. […] During this period, carefully observing the status of each mouse. • (6) Basket shaking: Placing the mice in an empty basket and shaking the basket drastically, with the criterion that the mice in the basket are unable to stand firm and sway with the shaking of the basket, for 1 hour. • (7) Olfactory stimulation: Placing anise and other spices in the mice's baskets as a means of olfactory stimulation.
The above seven experiments were conducted randomly during a week as a way to achieve unpredictability with 4 weeks of continuous stimulation.
At the end of the modeling, an open field test experiment was conducted to screen the modeled animals and group the successful modeled animals into five groups: normal group (Control), model control group (Model), positive drug treatment group (Fluoxetine), TJ0113 10 mg/kg treatment group (10 mg/kg), […], TJ0113 30 mg/kg treatment group (30 mg/kg). There were 10 mice in each group, and the administration treatment was administered by gavage, the normal and model control groups were given vehicle treatment, the vehicle was 0.5% CMC-Na, the positive drug fluoxetine hydrochloride was solubilized in saline and administered at a dose of 30 mg/kg, and the TJ0113 vehicle was 0.5% CMC-Na, and administered at a dose of 10 mg/kg and 30 mg/kg, respectively. 4 weeks after the end of the administration, behavioral tests were performed.
• (1) Adaptive feeding: Adaptive feeding with 1% sucrose water and plain water for 2 d before the start of the test, at 1 d, interchanging the sugar water and plain water to avoid positional differences for the animals, and fasting food and water for 1 d after adaption; • (2) Formal test: after fasting food and water, 1% sucrose water and plain water were given to the animals (the initial mass of sugar water and plain water is known), and weighing the remaining mass of sugar water/plain water of each animal after 24 h, and calculating the consumption rates of sugar water A and plain water B; • (3) Data analysis: sugar water preference rate=(A/A+B)×100%.
• (1) adapting to the environment: placing the animals in the test environment for 60 min to adapt to the environment before the test; • (2) Formal test: fixing the rear 1/3 of the mouse tail with tape and suspending on the stand of the experimental apparatus, with the head 15 cm from the bottom; • (3) starting timing camera, and stopping after 6 min, and recording the immobility time of the mice within 4 min; • (4) At the end of the test, using 75% alcohol to wipe the bottom and inner wall of the chamber.
• (1) adapting to the environment: placing the animals in the test environment for 60 min to adapt to the environment before the test; • (2) Formal test: placing the animals to be tested in the middle of the open field, and using the ANY-Maze software to collect the data, the test time is 10 min, and the feces and urine must be removed at the end of each round and disinfected and wiped dry with 75% alcohol; • (3) Analysis of results: total moved distance and average speed during the activity, time spent in the center area and time spent in the corner area.

[3] = In vitro liver microsomal stability test; conditions: microsomes
Description: Ketanserin was selected as the reference compound. The specific method was as follows:
0.1 M K3PO4 (pH 7.4) buffer and 3×NADPH stock solution (6 mM, 5 mg/mL) were configured and preheated in a 37° C. water bath; configuration of the test compounds and the control compounds (spiking solution): adding 5 μL of the compound stock solution ([…]) into 95 μL of acetonitrile; configuration of 1.5 μM spiking solution in microsomes (0.75 mg/mL): adding 1.5 μL of spiking solution and 18.75 μL of liver microsomal solution (20 mg/mL) into 479.75 μL of K3PO4 buffer; adding 30 μL of spiking solution in microsomes into the multiwell plate, and incubating at 37° C. for 5 min; adding 15 μL of NADPH storage solution into each well to start to react, and timing; adding 150 μL of acetonitrile solution containing IS at 0 min, 5 min, 15 min, 30 min, and 45 min, respectively, stopping the reaction; oscillating for 10 min, and then centrifuging at 6,000 rpm for 15 min; taking 80 μL of supernatant from each well for LC/MS detection, and calculating T1/2.

HGPS-MSC = assay: Senescence of HGPS patient derived mesenchymal stem cells; format: cell-based, human; conditions: 10 μM
Description: Mesenchymal stem cells HGPS-MSC differentiated from pluripotent stem cells (iPSC) of patients with Hutchinson-Gilford Progeria Syndrome (HGPS) were taken for culture, and the experiment was divided into three groups, namely, young cells cultured for 7 generations, labeled as Con-Y; senescent cells cultured for 12 generations, labeled as Con-O; and the administration group to which 10 μM of TJ01-013 was added during the process of culture, similarly cultured up to the 12th generation, labeled as Con-O+TJ01-013; the drug administration group to which 10 μM positive drug Ionafarnib was added during the process of culture, similarly cultured up to the 12th generation, and labeled as Con-O+ Ionafarnib; after the end of the treatment, all the cells were placed under the microscope to observe the morphology of the cells, and the proportion of SA-β-gal+ cells was counted. The levels of DNA damage marker γ-H2AX and heterochromatin modification H3K9me3 after TJ01-013 treatment and Ionafarnib treatment were detected by immunofluorescence technique (the specific procedure was described previously).

[4] = system: LPS-induced acute lung injury mice; assay: LPS-induced acute lung injury; format: in vivo, C57BL/6J mice
Description: Male mice C57BL/6J aged 6-8 weeks and weighing 18-22 g were selected for the study. After fixing the mice, 50 μl of PBS was injected into the airways of the mice under direct laryngoscopic vision to form a control group, and 5 mg/kg of LPS (E.coil) was dissolved in 50 μl of PBS and dripped to form a model group. The experiments were divided into […], each having 6 mice, namely, NS group (control group, airway drip of 50 μl PBS), LPS group (model control group, airway drip of 50 μl LPS), LPS+10 mg/kg group (airway drip of 50 μl LPS and given 10 mg/kg TJ01-013 treatment), LPS+20 mg/kg group (airway drip of 50 μl LPS and given 20 mg/kg TJ01-013 treatment), LPS+30 mg/kg group (airway drip of 50 μl LPS and given 30 mg/kg TJ01-013 treatment), LPS+Sivelestat group (Positive control group, airway drip of 50 μl LPS and given 5 mg/kg Sivelestat treatment). All groups were administered […] by intraperitoneal injection in a volume of 200 μl 1 h and 7 h after airway drip, and the mice were euthanized 24 h later, bronchoalveolar lavage fluid (BALF) was taken, and the levels of inflammatory factors in the bronchoalveolar lavage fluid were detected and the changes in the transcriptional levels of tissue-associated inflammatory factors were observed. • (2) taking and observing of Bronchoalveolar lavage fluid (BALF)
Use chloral hydrate intraperitoneal injection to make mice die of rapid overdose anesthesia, place mice in supine position on the dissection table, fix the limbs, disinfect the skin of the neck of the mice with 75% ethanol, incise the skin along the midline of the neck, bluntly separate the subcutaneous connective tissues and muscles with hemostatic forceps, expose the trachea, separate connective tissues on both sides of the trachea and between the trachea and the esophagus, and free the trachea. Two surgical sutures about 20 cm long were threaded between the trachea and esophagus. A 24G intravenous cannula needle was inserted at a 30-degree angle from the connective tissue membrane between the thyroid cartilage and the cricoid cartilage, and the intravenous cannula needle was delivered in the direction of the tracheal eminence. A surgical suture placed between the tracheo-esophageal was ligated at the entry of the cannula into the trachea and at the distal end of the cannula, respectively, and tied as tightly as possible to secure the cannula and trachea. 0.8 ml of PBS was aspirated with a 1 ml syringe, and the syringe was connected to the inlet end of the intravenous cannula needle, and PBS was slowly injected into the trachea, stayed for 30 seconds and then was withdrawn back, and a milky white frothy liquid withdrawn back was visible, and the lavage was repeated three times, and the liquid was centrifuged at 1500 rpm/min for 10 min, and the supernatant was used for cytokine assay, and the cell precipitates were coated after resuspending with PBS for Giemsa staining and sorting and counting.
The levels of inflammatory factors (inflammatory factors including IL-6, CXCL1, CXCL2, etc.) in BALF supernatant were detected according to the instructions of the ELISA test kit.
The obtained cDNA was amplified on a 96-well PCR plate using a LightCycler 480 system, and the gene level was determined by using glyceraldehyde 3-phosphate dehydrogenase (GAPDH) as an internal standard.

[5] = system: LPS-induced sepsis in mice; assay: LPS-induced sepsis survival; format: in vivo, C57 mice; conditions: 8th day; 10 mg/kg intraperitoneal once a day; LPS alone about 20%; FIG. 33
Description: A constructed preclinical sepsis model is a LPS-induced sepsis in mice. Injection of purified LPS into mice by intraperitoneal route or intravenous route can lead to activation of the innate immune system and simulate fulminant Gram-negative bacterial infections, the specific modeling method is as follows: 20-25 g C57 mice were selected, and 20 mg/kg LPS was injected intraperitoneally according to the body weight (the LPS was dissolved with PBS), and the experiment was divided into three groups, a model control group (LPS), a positive control treatment group (prednisone, 10 mg/kg), TJ01-013 treatment group (TJ01-013, 10 mg/kg), the mode of administration was intraperitoneal injection, the volume of administration was 5 ml/kg, the frequency of administration was once a day, and the biological deaths and changes in body weights of the mice were observed and recorded every day, and the mice were regarded as physiologically dead if their body weights decreased by 20% or more compared with that before the administration of LPS. Survival curves were plotted based on deaths observed up to 8 days after administration.

[6] = TJ01-013 10, 20, 30 mg/kg, Sivelestat 5 mg/kg, FIG. 26
[7] = concentration-dependent for TJ01-013, FIG. 27

In the case of `CC(C)(C)NC(=O)[C@H]1CC[C@H]2[C@@H]3CC[C@H]4NC(=O)C=C[C@]4(C)[C@H]3CC[C@]12C` [Finasteride], the prostate weight ([1]; oral gavage daily to day 30, FIG. 34) is reported as “reduced”, the “organ coefficient of prostate” value ([1]; oral gavage daily, FIG. 35) is reported as “reduced the organ coefficient of prostate, but there was no significant difference” and the “weight of urethra and bladder” value ([1]; oral gavage daily, FIG. 36) is reported as “tendency of decreasing its weight”.
With `CNCCC(Oc1ccc(C(F)(F)F)cc1)c1ccccc1` (stereo not shown) [Fluoxetine, reference compound] the “average movement speed, open field” value ([2]; TJ0113 10 mg/kg and 30 mg/kg, FIG. 61) was “significantly increased”, the sugar water preference ([2]; TJ0113 30 mg/kg, gavage, FIG. 57) was “significantly increased” and the “time in despair (immobility), tail-hanging experiment” value ([2]; TJ0113 30 mg/kg, FIG. 58) was “significantly decreased”. The “distance moved, open field” value ([2]; TJ0113 30 mg/kg, FIG. 59) was “significantly increased” and the “time in the edge area of the open field” value ([2]; TJ0113 30 mg/kg, FIG. 60) was “significantly decreased”.
With `CN(c1cc([S+]([O-])CC(=O)O)c(O)c2ccccc12)S(=O)(=O)c1ccc(Br)cc1` (stereo not shown) [I-2] the “liver microsomal stability (elimination half-life T1/2)” value [3] was “superior liver microsomal stability”.
For `NC(=O)N1CCC(CC(=O)N2CCC([C@H]3c4ncc(Br)cc4CCc4cc(Cl)cc(Br)c43)CC2)CC1` [Ionafarnib, reference compound], the “percentage of SA-β-gal+ cells” value (HGPS-MSC; 12th generation, vs Con-O, FIG. 54) was “significantly decreased”, the “level of DNA damage marker γ-H2AX” value (HGPS-MSC; FIG. 55) was “significantly reduced” and the “expression level of heterochromatin-modified H3K9me3” value (HGPS-MSC; FIG. 56) was “restored its expression level to some extent”.
For `CC(C)(C)C(=O)Oc1ccc(S(=O)(=O)Nc2ccccc2C(=O)NCC(=O)O)cc1` [Sivelestat, reference compound], the “CXCL1 level in alveolar lavage fluid (ELISA)” value [4, 6] was “significantly decreased”, the “CXCL2 level in alveolar lavage fluid (ELISA)” value [4, 6] was “no significant effect” and the “IL-6 level in alveolar lavage fluid (ELISA)” value [4, 6] was “no significant effect”. The “CXCL1 transcript level in lung tissue” value [4, 7] was “significantly decreased”, the “CXCL2 transcript level in lung tissue” value [4, 7] was “no significant effect” and the “IL-6 transcript level in lung tissue” value [4, 7] was “no significant effect”.
For `C[C@]12C=CC(=O)C=C1CC[C@@H]1[C@@H]2C(=O)C[C@@]2(C)[C@H]1CC[C@]2(O)C(=O)CO` [prednisone, reference compound], the survival rate [5] was 100%.
